Reference: PubChem BioAssay (NCI)
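48-hour exposure; five concentrations; linearly interpolated endpoints. The concentration for 50% growth inhibition is given as GI50. TGI marks complete inhibition of growth.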

Assays:
Experiment in all cases: inhibition of tumour cell growth, NCI panel, 48 h
HCC-2998 colon = tested on: HCC-2998 colon
A549 NSCLC = tested on: A549 NSCLC
NCI/ADR-RES ovarian = tested on: NCI/ADR-RES ovarian
786-0 renal = tested on: 786-0 renal
A498 renal = tested on: A498 renal
T-47D breast = tested on: T-47D breast
SF-539 CNS = tested on: SF-539 CNS

SMILES	TGI (HCC-2998 colon) [µM]	TGI (A549 NSCLC) [µM]	TGI (NCI/ADR-RES ovarian) [µM]	TGI (786-0 renal) [µM]	TGI (A498 renal) [µM]	TGI (T-47D breast) [µM]	TGI (SF-539 CNS) [µM]	GI50 (HCC-2998 colon) [nM]	GI50 (A549 NSCLC) [nM]	GI50 (NCI/ADR-RES ovarian) [nM]	GI50 (A498 renal) [nM]	GI50 (T-47D breast) [nM]	GI50 (SF-539 CNS) [nM]
CC(=O)NC(Cc1ccc(OP(=O)(OCc2ccc([N+](=O)[O-])o2)N(C)CCCCCl)cc1)C(=O)NC(C)c1ccc(OCC2CCCCC2)c(C(N)=O)c1 (stereo not drawn)	3.42	18.2	> 100	12.4	35.4	6.31	4.35	–	–	–	–	–	–
C#CCn1c(=O)c(Cl)cn(/C(=C/C(=O)OCC)C(=O)OCC)c1=O	–	> 62.8	> 79.3	3.83	40.8	5.27	12.7	–	–	–	–	–	–
Clc1c(C(Cl)(Cl)Cl)nsc1N1CCCCC1	47.9	> 100	–	39.2	46.1	–	68.5	–	–	–	–	–	–
Nn1c(Cc2ccccc2)n[nH]c1=O	> 100	> 100	> 100	> 100	> 100	> 100	> 100	–	–	–	–	–	–
Cc1nc2ccccc2n1Cc1nnc(N)o1	> 100	> 100	> 100	> 100	> 100	> 100	> 100	–	–	–	–	–	–
O=C(OCc1ccccc1)N1CCN(C(=O)OCc2ccccc2)CCN(C(=O)OCc2ccccc2)CCN(C(=O)OCc2ccccc2)CCN(C(=O)OCc2ccccc2)CC1	> 100	> 100	> 100	48.4	> 100	> 100	> 100	–	–	–	–	–	–
CCOc1ccc2nc(NC(NC(=O)c3cccnc3)(C(F)(F)F)C(F)(F)F)sc2c1	84.3	> 100	93.3	94.3	–	58.4	> 100	–	–	–	–	–	–
CCOC(=O)C(C(=O)OCC)=C1NC2(c3ccccc3Nc3ccc(C)cc32)C(C(=O)OC)S1 (stereo not drawn)	> 100	> 100	> 100	> 100	> 100	67.2	> 100	–	–	–	–	–	–
Oc1ccc(O)c(CNc2ccccc2)c1	67.7	> 100	> 100	26.1	–	37.9	15.2	–	–	–	–	–	–
CC(=O)O[C@H]1C[C@H]2C(=S)Nc3ccccc3C(=S)N2C1	> 100	> 100	> 100	> 100	> 100	> 100	–	–	–	–	–	–	–
CC(=O)OCC1OC(O/C=C(\CN=[N+]=[N-])C(C)=O)C(OC(C)=O)C(OC(C)=O)C1OC(C)=O (stereo not drawn)	35	46.2	> 100	18.2	47.5	13.4	–	–	–	–	–	–	–
O=C1ON=C2C3CC4CC12CC1(C3)C(=O)ON=C41	> 100	> 100	> 100	> 100	> 100	–	> 100	–	–	–	–	–	–
COC(=O)[C@H](Cc1ccccc1)NP(=O)(O)OCC1C=CC(n2cc(C)c(=O)[nH]c2=O)O1 (stereo partly drawn)	> 100	> 100	> 100	> 100	–	> 100	–	–	–	–	–	–	–
CSc1nc2c(=O)n(-c3ccccc3)c(=S)n(-c3ccccc3)c2s1	> 100	> 100	> 100	> 100	–	> 100	> 100	–	–	–	–	–	–
CCN(CC)CCCOc1cc2c(cc1OC)C(=O)N1CCC[C@H]1C=N2	–	> 100	> 100	> 100	92.4	–	> 100	–	–	–	–	–	–
COc1ccc(-c2cc(-c3cc(F)c(Cl)cc3Cl)on2)cc1OC	–	> 100	> 100	> 100	–	> 100	27	–	–	–	–	–	–
CC(Cc1ccccc1)NC1=NCCO1 (stereo not drawn)	71	> 100	–	–	85.5	> 100	30.3	–	–	–	–	–	–
CC(NC(C#N)CC12CC3CC(CC(C3)C1)C2)c1ccccc1 (stereo not drawn)	> 100	> 100	> 100	–	> 100	> 100	–	–	–	–	–	–	–
c1ccc2nc(CCC3CCCCN3)ccc2c1 (stereo not drawn)	> 100	> 100	> 100	> 100	> 100	> 100	–	–	–	–	–	–	–
Cc1ccc(S(=O)(=O)NC(=O)NC(Cc2ccc(O)c(O)c2)C(=O)O)cc1 (stereo not drawn)	–	> 100	> 100	34.6	> 100	> 100	–	–	–	–	–	–	–
CC1CCc2sc3[nH]c(=S)n(-c4ccccc4)c(=O)c3c2C1 (stereo not drawn)	67.8	> 100	> 100	> 100	–	> 100	–	–	–	–	–	–	–

SMILES	TGI (HCC-2998 colon) [µM]	TGI (A549 NSCLC) [µM]	TGI (NCI/ADR-RES ovarian) [µM]	TGI (786-0 renal) [µM]	TGI (A498 renal) [µM]	TGI (T-47D breast) [µM]	TGI (SF-539 CNS) [µM]	GI50 (HCC-2998 colon) [nM]	GI50 (A549 NSCLC) [nM]	GI50 (NCI/ADR-RES ovarian) [nM]	GI50 (A498 renal) [nM]	GI50 (T-47D breast) [nM]	GI50 (SF-539 CNS) [nM]
Cc1nc(C(N)=S)sc1C(=O)C/C(=N/N)C(=O)Nc1ccc(Cl)cc1	> 100	> 100	> 100	> 100	–	> 100	> 100	–	–	–	–	–	–
CCc1nc2ccc(C(F)(F)F)cc2[nH]c1=O	> 100	> 100	> 100	> 100	> 100	–	> 100	–	–	–	–	–	–
NC(=O)c1nnsc1NC=O	> 100	> 100	> 100	> 100	> 100	> 100	–	–	–	–	–	–	–
COC(=O)c1cc(C(=CCC[C@H]2CC[C@@]3(C)C(CCC4C3CC[C@@]3(C)C4CC[C@@H]3C(C)CCCC(C)C)C2)c2cc(Cl)c(OC(=O)c3ccccc3)c(C(=O)OC)c2)cc(Cl)c1OC(=O)c1ccccc1 (stereo partly drawn)	> 10	> 10	> 10	> 10	–	> 10	> 10	–	–	–	–	–	–
CCN(CC)C(=O)N1CN(c2ccccc2)C2(CCN(CCCSc3ccc(F)cc3)CC2)C1=O	–	> 100	83.4	25.4	–	47.1	20.7	–	–	–	–	–	–
O=[N+]([O-])c1ccc(Cl)cc1N/N=C/c1cccc2cccnc12	> 100	> 100	> 100	> 100	–	> 100	> 100	–	–	–	–	–	–
C(=C\c1cc(-c2ccc3ccccc3n2)nc2ccc3ccccc3c12)/c1ccc2ccccc2n1	> 100	> 100	> 100	> 100	> 100	–	> 100	–	–	–	–	–	–
CCOC(=O)CSc1[nH]c(NC(=S)Nc2ccccc2)c(C(N)=O)c1C(N)=O	> 10	> 10	–	> 10	–	> 10	–	–	–	–	–	–	–
C=C(C)[C@@H]1CCC2=C[C@H](CC(C)=CC3=CC(C)=C(O3)[C@@H]1OC)OC2=O	> 100	> 100	> 100	–	> 100	> 100	> 100	–	–	–	–	–	–
Cc1nnc(-n2c(O)cc(=O)n(-c3ccccc3)c2=S)nc1/C=C/c1ccc(N(C)C)cc1	22.7	> 59	> 100	> 59.4	> 55	> 60.7	–	–	–	–	–	–	–
CCN1CCC(O)(c2ccc(Oc3ccc(C)cc3)cc2)C(C(=O)c2ccc(Oc3ccc(C)cc3)cc2)C1 (stereo not drawn)	20.8	26.8	28.2	17.2	6.39	33.7	–	–	–	–	–	–	–
Oc1ccc(C#CCOc2ccccc2)cc1CNCCN(Cc1ccccn1)Cc1ccccn1	3.36	3.47	6.68	–	2.44	13.8	3.09	1650	1330	1830	1190	2880	1600
c1ccc(N=C2SC3=NCCN3C2=Nc2ccccc2)cc1	52.4	–	> 100	–	36.4	44.4	–	–	–	–	–	–	–
CC(=O)OCC1=C(C)C[C@H]([C@@H](COC(C)=O)C2CCC3C4C[C@H]5O[C@]56CC=CC(=O)[C@]6(C)C4CC[C@@]32C)OC1=O (stereo partly drawn)	1.2	7.12	–	1.58	1.64	1.41	–	–	–	–	–	–	–
Oc1cccc(-c2cn3cc(C(F)(F)F)ccc3n2)c1	54	> 100	78.1	> 100	> 100	21.2	–	–	–	–	–	–	–
CC(=O)/C=C(\O)c1[nH]c(C(=O)O)cc1C1CCN(Cc2ccccc2)C1=O (stereo not drawn)	46.4	81.4	28.9	47.6	> 100	49.8	–	–	–	–	–	–	–
CC(C)C1CC[C@H](C)C[C@@H]1OC(=O)C(C(=O)O[C@H]1C[C@@H](C)CCC1C(C)C)C(O)[C@@H]1OC(C)(C)O[C@H]1C1COC(C)(C)O1 (stereo partly drawn)	26.7	66.6	45.4	31.7	–	32.3	49.5	–	–	–	–	–	–
O=C1C(NCCN2CCOCC2)=C(Cl)C(=O)c2ncccc21	1.94	3.36	–	1.6	3.98	3.14	2.53	–	–	–	–	–	–
CC1(C)CC2(C)CC1CC2NC(=O)CCN1CCOCC1 (stereo not drawn)	> 100	> 100	–	> 100	> 100	> 100	> 100	–	–	–	–	–	–
C#CC(O)/C=C/C(O)CCCC(O)CC#CC(O)C#CC(O)CCCC(O)/C=C/CCCC(=O)CCCCCCCCCCCCCCCC(O)C(O)C#CC(=O)O (stereo not drawn)	> 50	> 50	> 50	> 50	–	> 50	–	–	–	–	–	–	–
O=C1CCCC2=C1CC1=C(CCCC1=O)N2c1ccccc1	> 100	> 100	> 100	> 100	> 100	–	> 100	–	–	–	–	–	–
